Consider 38 molecules from patent US20090111801A1, “SUBSTITUTED PYRAZINONE DERIVATIVES FOR USE AS A MEDICINE” (Janssen Pharmaceutica N.V., priority 2006, published 2009).

Some results are limits rather than exact numbers.

The target of one assay is T1, hα2A receptor (Homo sapiens, UniProt P08913).
T1 construct: expressed in transfected cells; host or cells: CHO cells, stably transfected; membrane preparation
T1 sequence (P08913 1-465): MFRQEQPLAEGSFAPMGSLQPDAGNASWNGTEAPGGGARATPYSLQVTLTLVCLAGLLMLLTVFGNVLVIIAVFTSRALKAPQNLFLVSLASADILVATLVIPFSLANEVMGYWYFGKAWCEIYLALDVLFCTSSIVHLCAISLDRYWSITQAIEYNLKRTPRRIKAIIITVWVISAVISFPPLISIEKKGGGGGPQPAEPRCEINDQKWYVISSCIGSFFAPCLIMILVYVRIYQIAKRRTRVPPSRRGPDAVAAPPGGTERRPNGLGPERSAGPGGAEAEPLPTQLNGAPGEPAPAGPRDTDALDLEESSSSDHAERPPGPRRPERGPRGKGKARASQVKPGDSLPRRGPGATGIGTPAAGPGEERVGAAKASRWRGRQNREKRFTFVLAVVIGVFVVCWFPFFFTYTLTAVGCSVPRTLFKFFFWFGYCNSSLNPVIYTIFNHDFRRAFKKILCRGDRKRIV
Put plainly: Radioligand binding experiment for α2A-adrenoceptor ([3H]raulwolscine, CHO cell membranes). Conditions: [3H]raulwolscine binding, read-out: h-α2A pIC50 (converted).

In the next assay the target is T2, hα2C receptor (Homo sapiens, UniProt P18825).
T2 construct: expressed in transfected cells; host or cells: CHO cells, stably transfected; membrane preparation
T2 sequence (P18825 1-462): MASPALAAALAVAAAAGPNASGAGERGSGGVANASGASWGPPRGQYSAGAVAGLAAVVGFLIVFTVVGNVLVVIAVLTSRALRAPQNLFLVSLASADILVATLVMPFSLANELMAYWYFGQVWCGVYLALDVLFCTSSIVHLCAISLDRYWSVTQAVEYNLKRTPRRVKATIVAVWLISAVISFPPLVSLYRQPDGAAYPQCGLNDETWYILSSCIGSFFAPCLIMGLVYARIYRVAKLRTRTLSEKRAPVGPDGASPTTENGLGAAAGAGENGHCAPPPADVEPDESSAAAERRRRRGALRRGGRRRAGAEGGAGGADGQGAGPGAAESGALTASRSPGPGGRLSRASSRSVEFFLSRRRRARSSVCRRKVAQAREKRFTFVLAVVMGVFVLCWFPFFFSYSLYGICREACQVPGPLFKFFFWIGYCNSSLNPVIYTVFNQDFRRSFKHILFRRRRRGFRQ
Put plainly: Radioligand binding experiment for α2C-adrenoceptor ([3H]raulwolscine, CHO cell membranes). The note with it: [3H]raulwolscine binding, read-out: h-α2C pIC50 (converted).

For the next assay, the target named is T3, 5HT-Transporter (Homo sapiens, UniProt P31645).
T3 construct: Human platelet membranes (Oceanix Biosciences Corporation, Hanover, Md., USA) were thawed; tissue Oceanix Biosciences Corporation, Hanover, Md., USA; host or cells: human platelet membranes
T3 sequence (P31645 whole entry): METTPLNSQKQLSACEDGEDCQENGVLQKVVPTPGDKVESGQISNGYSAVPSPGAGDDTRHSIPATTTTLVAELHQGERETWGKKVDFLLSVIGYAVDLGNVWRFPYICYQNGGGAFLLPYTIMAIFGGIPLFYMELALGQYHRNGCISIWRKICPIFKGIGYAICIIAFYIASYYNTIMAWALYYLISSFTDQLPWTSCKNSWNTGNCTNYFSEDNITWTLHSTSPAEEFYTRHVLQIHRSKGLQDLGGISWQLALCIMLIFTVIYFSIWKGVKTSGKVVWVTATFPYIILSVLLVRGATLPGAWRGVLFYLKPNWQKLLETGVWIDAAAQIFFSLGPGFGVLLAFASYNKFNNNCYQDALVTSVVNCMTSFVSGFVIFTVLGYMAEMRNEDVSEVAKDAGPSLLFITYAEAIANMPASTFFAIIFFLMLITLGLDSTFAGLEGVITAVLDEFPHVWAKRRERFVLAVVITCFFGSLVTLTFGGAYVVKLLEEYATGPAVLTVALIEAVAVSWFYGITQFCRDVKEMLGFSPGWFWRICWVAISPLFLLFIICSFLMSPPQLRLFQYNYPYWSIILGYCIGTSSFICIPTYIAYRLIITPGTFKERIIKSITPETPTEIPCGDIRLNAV
Put plainly: Binding experiment for the 5HT-transporter ([3H]paroxetine, human platelet membranes). Conditions: [3H]paroxetine 0.5 nM, read-out: h-5HTT pIC50 (converted). The gist of the method: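 Filter-bound radioactivity from human platelet membranes incubated with [3H]paroxetine and test compound (buffer Tris-HCl 50 mM, 120 mM NaCl, 5 mM KCl) was counted.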

In the case of `C/C(=C\c1ccccc1)CN1CCC(Nc2nccn(Cc3ccc(CNS(=O)(=O)/C=C/c4ccccc4)cc3)c2=O)CC1` [1-167], the IC50 at hα2A receptor was 200 nM; at hα2C receptor, 39.8 nM; at 5HT-Transporter it was 631 nM.
For `C/C(=C\c1ccccc1)CN1CCC(Nc2nccn(-c3ccc(NC(=O)c4cccc(F)c4)cc3)c2=O)CC1` [1-77], in that order: 126 nM, 15.8 nM and 251 nM.
For `COC(=O)c1ccc(Cn2ccnc(NC3CCN(C/C(C)=C/c4ccccc4)CC3)c2=O)cc1` [3-14], in that order: 79.4 nM, 63.1 nM and 794 nM.
For `C/C(=C\c1ccccc1)CN1CCN(c2nccn(Cc3ccc(CN)cc3)c2=O)CC1` [8-1], in that order: 39.8 nM, 12.6 nM and 1000 nM.
For the molecule `CCCNC(=O)Cn1ccnc(NC2CCN(C/C(C)=C/c3ccccc3)CC2)c1=O` [1-10], the IC50 at hα2A receptor is 126 nM; on hα2C receptor, 10 nM; at 5HT-Transporter it was 2000 nM.
For `C/C(=C\c1ccccc1)CN1CCC(Nc2nccn(CC(=O)N3CCN(Cc4ccccc4)CC3)c2=O)CC1` [2-30], in that order: 79.4 nM, 2 nM and 794 nM.
For the molecule `C#CCN(C)C(=O)Cn1ccnc(NC2CCN(C/C(C)=C/c3ccccc3)CC2)c1=O` [1-28], the IC50 on hα2A receptor is 79.4 nM; at hα2C receptor, 5.01 nM; at 5HT-Transporter it was 2510 nM.
For `C/C(=C\c1ccccc1)CN1CCC(Nc2nccn(CC(=O)NCCCc3ccccc3)c2=O)CC1` [1-60], in that order: 79.4 nM, 10 nM and 794 nM.
For `CCOC(=O)N1CCN(Cc2cccc(-n3ccnc(NC4CCN(C/C(C)=C/c5ccccc5)CC4)c3=O)c2)CC1` [2-36], in that order: 100 nM, 10 nM and 1580 nM.
For `C/C(=C\c1ccccc1)CN1CCC(Nc2nccn(CC(=O)C(C)(C)C)c2=O)CC1` [7-9], in that order: 79.4 nM, 7.94 nM and 5010 nM.
On to `C/C(=C\c1ccccc1)CN1CCN(c2nccn(CCN3CCOCC3)c2=O)CC1` [9-2], for which the results for the IC50 at hα2A receptor, at hα2C receptor and on 5HT-Transporter were 1000 nM, 200 nM and 7940 nM, respectively.
Consider `C/C(=C\c1ccccc1)CN1CCC(Nc2nccn(CCCN(c3ccccc3)S(=O)(=O)c3ccccc3)c2=O)CC1` [1-168], for which the IC50 is 158 nM at hα2A receptor, 10 nM on hα2C receptor and 200 nM at 5HT-Transporter.
In the same order, the values of `C/C(=C\c1ccccc1)CN1CCC(Nc2nccn(Cc3ccc(C(F)(F)F)cc3)c2=O)CC1` [5-23] are 200 nM, 79.4 nM and 794 nM.
For `C/C(=C\c1ccccc1)CN1CCC(Nc2nccn(Cc3ccccc3F)c2=O)CC1` [5-11], the IC50 on hα2A receptor is 158 nM; on hα2C receptor it was 31.6 nM; at 5HT-Transporter, 501 nM.
For `C/C(=C\c1ccccc1)CN1CCC(Nc2nccn(CC(=O)N(C)Cc3ccccc3)c2=O)CC1` [1-52], in that order: 63.1 nM, 2.51 nM and 631 nM.
In the same order, the values of `C/C(=C\c1ccccc1)CN1CCC(Nc2nccn(CC(=O)N(C)CCO)c2=O)CC1` [1-21] are 316 nM, 20 nM and 2510 nM.
Take `C/C(=C\c1ccccc1)CN1CCC(Nc2nccn(CCCN(C)C(=O)c3ccc(F)cc3)c2=O)CC1` [1-79]: the IC50 on hα2A receptor is 2000 nM; at hα2C receptor, 39.8 nM; at 5HT-Transporter it was over 10000 nM.
For `C/C(=C\c1ccccc1)CN1CCC(Nc2nccn(-c3ccc(NCCc4ccccc4)cc3)c2=O)CC1` [1-59], the IC50 was 79.4 nM on hα2A receptor, 10 nM on hα2C receptor and 1260 nM at 5HT-Transporter.
For `C/C(=C\c1ccccc1)CN1CCC(Nc2nccn(CCCN(C)C(=O)OC(C)(C)C)c2=O)CC1` [1-92], in that order: 100 nM, 6.31 nM and 1260 nM.
In the same order, the values of `C/C(=C\c1ccccc1)CN1CCC(Nc2nccn(Cc3ccc(CNC(=O)Cc4ccccc4)cc3)c2=O)CC1` [1-82] are 79.4 nM, 25.1 nM and 251 nM.
For `O=c1c(NC2CCN(C/C=C/c3ccccc3)CC2)nccn1Cc1cccc(Br)c1` [16-16], in that order: 501 nM, 200 nM and 1000 nM.
In the case of `C/C(=C\c1ccccc1)CN1CCC(Nc2nccn(CC(=O)N3CCC(N4CCCC4)CC3)c2=O)CC1` [2-17], the IC50 at hα2A receptor is 25.1 nM; on hα2C receptor, 1.58 nM; at 5HT-Transporter, 2000 nM.
In the same order, the values of `C/C(=C\c1ccccc1)CN1CCC(Nc2nccn(CC(=O)N(CCN3CCCC3)CC3CCCCC3)c2=O)CC1` [1-134] are 12.6 nM, 1.58 nM and 501 nM.
In the same order, the values of `C/C(=C\c1ccccc1)CN1CCC(Nc2nccn(CCCN(C(=O)Nc3ccccc3)c3ccccc3)c2=O)CC1` [1-122] are 100 nM, 7.94 nM and 200 nM.
In the same order, the values of `C/C(=C\c1ccccc1)CN1CCC(Nc2nccn(Cc3ccc4ccccc4c3)c2=O)CC1` [5-35] are 63.1 nM, 39.8 nM and 398 nM.
For the molecule `C/C(=C\c1ccccc1)CN1CCC(Nc2nccn(-c3ccc(C(=O)NCc4ccc(F)cc4)cc3)c2=O)CC1` [1-56], the IC50 at hα2A receptor is 158 nM; on hα2C receptor, 15.8 nM; at 5HT-Transporter, 251 nM.
In the same order, the values of `C/C(=C\c1ccccc1)CN1CCC(Nc2nccn(-c3ccc(C=O)cc3)c2=O)CC1` [5-6] are 39.8 nM, 6.31 nM and 2000 nM.
In the same order, the values of `C/C(=C\c1ccccc1)CN1CCC(Nc2nccn(Cc3cccc4ccccc34)c2=O)CC1` [5-34] are 100 nM, 25.1 nM and 398 nM.
In the same order, the values of `C/C(=C\c1ccccc1)CN1CCC(Nc2nccn(-c3ccc(N4CCN(c5ccccc5)CC4)cc3)c2=O)CC1` [2-28] are 100 nM, 15.8 nM and 794 nM.
In the case of `C/C(=C\c1ccccc1)CN1CCC(Nc2nccn(Cc3ccc(CNC(=O)NC4CCCCC4)cc3)c2=O)CC1` [1-118], the IC50 is 398 nM on hα2A receptor, 79.4 nM at hα2C receptor and 501 nM at 5HT-Transporter.
In the same order, the values of `C/C(=C\c1ccccc1)CN1CCC(Nc2nccn(CCCN(Cc3ccccc3)S(C)(=O)=O)c2=O)CC1` [1-169] are 200 nM, 10 nM and 316 nM.
As to `C/C(=C\c1ccccc1)CN1CCC(Nc2nccn(-c3cccc(CO)c3)c2=O)CC1` [3-2], the figures for the IC50 at hα2A receptor, on hα2C receptor and on 5HT-Transporter were 79.4 nM, 12.6 nM and 5010 nM, respectively.
In the same order, the values of `C/C(=C\c1ccccc1)CN1CCC(N(C)c2nccn(CCN3CCCCC3)c2=O)CC1` [15-3] are 100 nM, 20 nM and 5010 nM.
In the same order, the values of `COCCn1ccnc(NC2CCN(C/C=C/c3ccccc3)CC2)c1=O` [16-9] are 3160 nM, 631 nM and over 10000 nM.
In the case of `C/C(=C\c1ccccc1)CN1CCC(Nc2nccn(Cc3ccc(CNS(=O)(=O)c4ccc(C(F)(F)F)cc4)cc3)c2=O)CC1` [1-163], the IC50 at hα2A receptor is 158 nM; at hα2C receptor it was 39.8 nM; at 5HT-Transporter, 794 nM.
In the case of `C/C(=C\c1ccccc1)CN1CCC(Nc2nccn(-c3ccc(C(=O)N4CCOCC4)cc3)c2=O)CC1` [2-46], the IC50 on hα2A receptor is 31.6 nM; at hα2C receptor, 3.98 nM; at 5HT-Transporter, 794 nM.
In the same order, the values of `C/C(=C\c1ccccc1)CN1CCC(Nc2nccn(CC(=O)Nc3ccc(F)cc3)c2=O)CC1` [1-42] are 100 nM, 3.98 nM and 501 nM.
Turning to `C/C(=C\c1ccccc1)CN1CCC(Nc2nccn(Cc3ccc(CNC(=O)c4ccncc4)cc3)c2=O)CC1` [1-154], the IC50 was 126 nM at hα2A receptor, 39.8 nM on hα2C receptor and 398 nM on 5HT-Transporter.
